Source: the supplement of paper PMC13380429

Experiments:
Settings in all cases: 72 h
Calu-3 [1] = test: drug sensitivity score (DSS) for viability; higher = more toxic; extreme values may be limits of the assay
U2OS [2] = test: as above
Caco-2 [3] = test: as above
HepG2 [4] = test: as above
Vero E6 [5] = test: as above
Calu-3 [6] = test: relative viability EC50 (midpoint between 100% and the lowest measured viability); higher = less toxic
U2OS [7] = test: as above
Caco-2 [8] = test: as above
HepG2 [9] = test: as above
Vero E6 [10] = test: as above
Calu-3 [11] = test: cell viability relative to DMSO; higher = less toxic
U2OS [12] = test: as above
Caco-2 [13] = test: as above
HepG2 [14] = test: as above
Vero E6 [15] = test: as above

Row | Structure (SMILES) | drug sensitivity score (Calu-3 [1]) | drug sensitivity score (U2OS [2]) | drug sensitivity score (Caco-2 [3]) | drug sensitivity score (HepG2 [4]) | drug sensitivity score (Vero E6 [5]) | relative viability EC50 (Calu-3 [6]) | relative viability EC50 (U2OS [7]) | relative viability EC50 (Caco-2 [8]) | relative viability EC50 (HepG2 [9]) | relative viability EC50 (Vero E6 [10]) | cell viability (Calu-3 [11]; 1 nM) | cell viability (Calu-3 [11]; 10 nM) | cell viability (Calu-3 [11]; 100 nM) | cell viability (Calu-3 [11]; 1000 nM) | cell viability (Calu-3 [11]; 10000 nM) | cell viability (U2OS [12]; 1 nM) | cell viability (U2OS [12]; 10 nM) | cell viability (U2OS [12]; 100 nM) | cell viability (U2OS [12]; 1000 nM) | cell viability (U2OS [12]; 10000 nM) | cell viability (Caco-2 [13]; 1 nM) | cell viability (Caco-2 [13]; 10 nM) | cell viability (Caco-2 [13]; 100 nM) | cell viability (Caco-2 [13]; 1000 nM) | cell viability (Caco-2 [13]; 10000 nM) | cell viability (HepG2 [14]; 1 nM) | cell viability (HepG2 [14]; 10 nM) | cell viability (HepG2 [14]; 100 nM) | cell viability (HepG2 [14]; 1000 nM) | cell viability (HepG2 [14]; 10000 nM) | cell viability (Vero E6 [15]; 1 nM) | cell viability (Vero E6 [15]; 10 nM) | cell viability (Vero E6 [15]; 100 nM) | cell viability (Vero E6 [15]; 1000 nM) | cell viability (Vero E6 [15]; 10000 nM)
1 | C[C@H]1C[C@H]2[C@@H]3CCC4=CC(=O)C=C[C@]4(C)[C@H]3C(=O)C[C@]2(C)[C@@]1(O)C(=O)CO [Betapar (Meprednisone)] | 0 | 0 | 0 | 0 | 0 | > 10 µM | > 10 µM | > 10 µM | > 10 µM | > 10 µM | 92.9% | 93.2% | 91.5% | 91% | 97.8% | 97.6% | 98.3% | 96% | 98.2% | 95.1% | 86.1% | 91.1% | 87.4% | 103% | 94.8% | 83.6% | 97.3% | 95.5% | 95.9% | 86.5% | 103% | 102% | 101% | 99.7% | 97.4%
2 | CCC[C@H](NC(=O)/C(C#N)=C/c1cccc(Br)n1)c1ccccc1 [WP1130] | 4 | 6.3 | 5.5 | 5.5 | 5.7 | 3.94 µM | 2.74 µM | 2.43 µM | 3.18 µM | 2.98 µM | 100% | 97.1% | 90.7% | 118% | 10.8% | 95.7% | 108% | 97.5% | 94.6% | 0.9% | 106% | 103% | 93.2% | 93% | 21.3% | 99.8% | 105% | 101% | 100% | 0.8% | 101% | 100% | 100% | 97.6% | 3.5%
3 | CCCCC/C=C\C/C=C\CCCCCCCC(=O)NCCCC(=O)O [GABA-linoleamide] | 0 | 0 | 0 | 0 | 0 | > 10 µM | > 10 µM | > 10 µM | > 10 µM | > 10 µM | 86% | 97.9% | 87% | 111% | 90.6% | 95.2% | 97.9% | 99.3% | 102% | 95.8% | 96.9% | 110% | 96.2% | 87.5% | 126% | 74.4% | 97.2% | 95.6% | 98.2% | 120% | 106% | 108% | 111% | 99.1% | 114%
4 | CCCCCCCCCCCCCCCCCCCCCCCCCCCCO [1-octacosanol] | 0 | 0 | 0 | 0 | 0 | > 10 µM | > 10 µM | > 10 µM | > 10 µM | > 10 µM | 99.1% | 105% | 102% | 95.5% | 96.1% | 97.6% | 96.5% | 102% | 96.2% | 96% | 95.4% | 85.8% | 97% | 91.8% | 95% | 103% | 109% | 97.6% | 116% | 102% | 95.5% | 98.5% | 96.7% | 95.6% | 104%
5 | COC(=O)c1ccc2c(c1)NC(=O)/C2=C(\Nc1ccc(N(C)C(=O)CN2CCN(C)CC2)cc1)c1ccccc1 [nintedanib] | 0 | 0 | 0 | 1.5 | 0 | > 10 µM | > 10 µM | > 10 µM | > 10 µM | > 10 µM | 106% | 98% | 102% | 101% | 90.4% | 101% | 101% | 97.1% | 104% | 94% | 93.1% | 108% | 102% | 94.7% | 107% | 98.9% | 101% | 103% | 91.2% | 80.3% | 110% | 102% | 106% | 100% | 98.5%
6 | Cc1cc(OCc2nnc(SC3CCCC3)n2-c2cccnc2)ccc1-c1ccc(S(C)(=O)=O)cc1 [NMS-873] | 7.1 | 8.1 | 7.3 | 19.7 | 7.5 | 1.85 µM | 1.96 µM | 1.64 µM | 0.175 µM | 2.19 µM | 88.8% | 93.1% | 92.1% | 85.3% | 16.2% | 97% | 98.5% | 91.1% | 84.6% | 0.2% | 102% | 101% | 83.6% | 77.7% | 17.8% | 107% | 96.2% | 61.6% | 19.7% | 1.5% | 105% | 102% | 107% | 88% | 0.3%
7 | C=CCN1CCCC1CNC(=O)c1cc2nn[nH]c2cc1OC (stereo not given) [alizapride] | 0 | 0 | 0 | 0 | 0 | > 10 µM | > 10 µM | > 10 µM | > 10 µM | > 10 µM | 89.9% | 91.4% | 86.2% | 101% | 112% | 97.6% | 99.9% | 94.5% | 106% | 100% | 94.7% | 104% | 90.1% | 98% | 107% | 108% | 94.2% | 104% | 88.8% | 103% | 92.9% | 97.3% | 94.9% | 91.4% | 105%
8 | O=C(O)[C@H]1CC[C@H](c2cc3cccnc3c(-c3cccc(F)c3)n2)CC1 | 0 | 0 | 0 | 0 | 0.2 | > 10 µM | > 10 µM | > 10 µM | > 10 µM | > 10 µM | 112% | 95.1% | 91.1% | 95% | 107% | 104% | 98.4% | 96.9% | 96.5% | 99.6% | 102% | 103% | 108% | 98% | 109% | 96.3% | 98.9% | 101% | 92.2% | 90.1% | 101% | 99.3% | 96.3% | 99% | 86.3%
9 | CCN(CC)CCNC(=O)c1ccccc1I [I-BZA2] | 0 | 0 | 0 | 0 | 0 | > 10 µM | > 10 µM | > 10 µM | > 10 µM | > 10 µM | 98.8% | 102% | 105% | 105% | 115% | 99.1% | 101% | 95.8% | 102% | 102% | 89.9% | 86.5% | 98.7% | 100% | 91.4% | 105% | 94.7% | 102% | 84% | 100% | 99% | 99.3% | 104% | 91.5% | 110%
10 | N#Cc1cc2nc(O)c(O)nc2cc1[N+](=O)[O-] [CNQX] | 0.4 | 0 | 0 | 0 | 0 | > 10 µM | > 10 µM | > 10 µM | > 10 µM | > 10 µM | 95.9% | 101% | 106% | 97% | 85.8% | 97.9% | 101% | 97.9% | 104% | 96.8% | 99% | 96.1% | 99.8% | 97.5% | 94.6% | 99.4% | 94.7% | 99.1% | 98.3% | 99.5% | 100% | 100% | 104% | 94.8% | 95.2%
11 | Cc1ccc(OC[C@@H](O)[C@H](C)NC(C)C)c2c1CCC2 (racemic) [ICI-118,551] | 0 | 0 | 0 | 0 | 0 | > 10 µM | > 10 µM | > 10 µM | > 10 µM | > 10 µM | 121% | 98.9% | 109% | 105% | 112% | 108% | 98.5% | 113% | 100% | 113% | 109% | 103% | 99.2% | 109% | 97.8% | 111% | 106% | 100% | 111% | 95.3% | 98.6% | 94.2% | 101% | 90.5% | 94.1%
12 | CCCCn1c(-c2ccccc2)nc(-c2ccccc2)c1CN(Cc1ccc2c(c1)OCO2)Cc1ccc2c(c1)OCO2 | 0 | 0.2 | 1.2 | 0 | 0 | > 10 µM | > 10 µM | > 10 µM | > 10 µM | > 10 µM | 107% | 102% | 107% | 101% | 96.7% | 95.8% | 97.6% | 91.4% | 94% | 85.6% | 94.2% | 105% | 95.1% | 92.7% | 77.5% | 102% | 102% | 96.3% | 95.5% | 89.4% | 106% | 101% | 100% | 101% | 97.7%
13 | COc1cc2c(cc1OC)-c1cc3ccc(OC)c(OC)c3c[n+]1CC2 [palmatine-chloride] | 0 | 0 | 0 | 0.6 | 0 | > 10 µM | > 10 µM | > 10 µM | > 10 µM | > 10 µM | 94.1% | 105% | 100% | 90.1% | 90% | 101% | 101% | 98.5% | 102% | 92.6% | 103% | 99.1% | 92.8% | 102% | 90.9% | 110% | 101% | 107% | 105% | 77.1% | 100% | 99.3% | 99.6% | 102% | 101%
14 | CS(=O)(=O)c1ccc([C@@H](CC2CCCC2)C(=O)Nc2nccs2)cc1 [Ro-28-1675] | 0 | 0 | 0 | 0 | 0 | > 10 µM | > 10 µM | > 10 µM | > 10 µM | > 10 µM | 103% | 100% | 114% | 99.6% | 99.3% | 101% | 96.1% | 101% | 102% | 98.9% | 92% | 97.8% | 102% | 106% | 92.2% | 97.2% | 96.4% | 108% | 90.8% | 103% | 95.5% | 95.2% | 96.8% | 91.1% | 98.9%
